Test results reported in ChEMBL document CHEMBL4507324 (2021).

Tests used:
Conditions in all cases: Compound concentration 100.0 nM
[1] = molecular target: Serine/threonine-protein kinase DCLK3 (Homo sapiens) (UniProt Q9C098)
[2] = molecular target: TRAF2 and NCK-interacting protein kinase (Homo sapiens) (UniProt Q9UKE5)
[3] = system: Tyrosine-protein kinase ABL1 (Homo sapiens), P00519 [T315I]
[4] = molecular target: Cyclin-dependent kinase 15 (Homo sapiens) (UniProt Q96Q40)
[5] = molecular target: 5'-AMP-activated protein kinase catalytic subunit alpha-2 (Homo sapiens) (UniProt P54646)
[6] = molecular target: Ephrin type-B receptor 3 (Homo sapiens) (UniProt P54753)
[7] = molecular target: Cyclin-dependent kinase 2 (Homo sapiens) (UniProt P24941)
[8] = molecular target: Muscle, skeletal receptor tyrosine-protein kinase (Homo sapiens) (UniProt O15146)
[9] = molecular target: Serine/threonine-protein kinase MRCK beta (Homo sapiens) (UniProt Q9Y5S2)
[10] = molecular target: Phosphatidylinositol 4,5-bisphosphate 3-kinase catalytic subunit gamma isoform (Homo sapiens) (UniProt P48736)
[11] = system: Epidermal growth factor receptor (Homo sapiens), P00533 [L858R]
[12] = molecular target: cAMP-dependent protein kinase catalytic subunit PRKX (Homo sapiens) (UniProt P51817)
[13] = system: Epidermal growth factor receptor (Homo sapiens), P00533 [UNDEFINED MUTATION]
[14] = molecular target: Serine/threonine-protein kinase NIM1 (Homo sapiens) (UniProt Q8IY84)
[15] = molecular target: Dual specificity tyrosine-phosphorylation-regulated kinase 1B (Homo sapiens) (UniProt Q9Y463)
[16] = molecular target: Non-receptor tyrosine-protein kinase TNK1 (Homo sapiens) (UniProt Q13470)
[17] = molecular target: Rhodopsin kinase GRK7 (Homo sapiens) (UniProt Q8WTQ7)
[18] = system: Receptor-type tyrosine-protein kinase FLT3 (Homo sapiens), P36888 [R834Q]
[19] = molecular target: Receptor-interacting serine/threonine-protein kinase 1 (Homo sapiens) (UniProt Q13546)
[20] = molecular target: Proto-oncogene tyrosine-protein kinase Src (Homo sapiens) (UniProt P12931)
[21] = molecular target: SNF-related serine/threonine-protein kinase (Homo sapiens) (UniProt Q9NRH2)
[22] = system: Epidermal growth factor receptor (Homo sapiens), P00533 [G719C]
[23] = molecular target: Tyrosine-protein kinase ITK/TSK (Homo sapiens) (UniProt Q08881)
[24] = molecular target: Serine/threonine-protein kinase tousled-like 2 (Homo sapiens) (UniProt Q86UE8)
[25] = molecular target: NUAK family SNF1-like kinase 1 (Homo sapiens) (UniProt O60285)
[26] = molecular target: Calcium/calmodulin-dependent protein kinase kinase 1 (Homo sapiens) (UniProt Q8N5S9)
[27] = molecular target: Homeodomain-interacting protein kinase 4 (Homo sapiens) (UniProt Q8NE63)
[28] = molecular target: Serine/threonine-protein kinase Nek2 (Homo sapiens) (UniProt P51955)
[29] = molecular target: Serine/threonine-protein kinase Nek6 (Homo sapiens) (UniProt Q9HC98)
[30] = molecular target: Cyclin-dependent kinase 11B (Homo sapiens) (UniProt P21127)
[31] = molecular target: Ephrin type-B receptor 6 (Homo sapiens) (UniProt O15197)
[32] = molecular target: Serine/threonine-protein kinase Sgk1 (Homo sapiens) (UniProt O00141)
[33] = molecular target: Cyclin-dependent kinase-like 3 (Homo sapiens) (UniProt Q8IVW4)
[34] = molecular target: Serine/threonine-protein kinase Nek4 (Homo sapiens) (UniProt P51957)
[35] = molecular target: Tyrosine-protein kinase Lyn (Homo sapiens) (UniProt P07948)
[36] = molecular target: Serine/threonine-protein kinase PLK4 (Homo sapiens) (UniProt O00444)
[37] = molecular target: Serine/threonine-protein kinase WNK3 (Homo sapiens) (UniProt Q9BYP7)
[38] = molecular target: Mitogen-activated protein kinase kinase kinase 9 (Homo sapiens) (UniProt P80192)
[39] = molecular target: Cyclin-dependent kinase 2 homolog (Plasmodium falciparum (isolate 3D7)) (UniProt P61075)
[40] = molecular target: Tyrosine-protein kinase receptor TYRO3 (Homo sapiens) (UniProt Q06418)
[41] = molecular target: LIM domain kinase 2 (Homo sapiens) (UniProt P53671)
[42] = molecular target: Receptor-interacting serine/threonine-protein kinase 4 (Homo sapiens) (UniProt P57078)
[43] = molecular target: Tyrosine-protein kinase receptor Tie-1 (Homo sapiens) (UniProt P35590)
[44] = molecular target: Dual specificity mitogen-activated protein kinase kinase 7 (Homo sapiens) (UniProt O14733)
[45] = molecular target: Serine/threonine-protein kinase PLK2 (Homo sapiens) (UniProt Q9NYY3)

Chain of Rhodopsin kinase GRK7 (Homo sapiens) (Q8WTQ7 whole entry): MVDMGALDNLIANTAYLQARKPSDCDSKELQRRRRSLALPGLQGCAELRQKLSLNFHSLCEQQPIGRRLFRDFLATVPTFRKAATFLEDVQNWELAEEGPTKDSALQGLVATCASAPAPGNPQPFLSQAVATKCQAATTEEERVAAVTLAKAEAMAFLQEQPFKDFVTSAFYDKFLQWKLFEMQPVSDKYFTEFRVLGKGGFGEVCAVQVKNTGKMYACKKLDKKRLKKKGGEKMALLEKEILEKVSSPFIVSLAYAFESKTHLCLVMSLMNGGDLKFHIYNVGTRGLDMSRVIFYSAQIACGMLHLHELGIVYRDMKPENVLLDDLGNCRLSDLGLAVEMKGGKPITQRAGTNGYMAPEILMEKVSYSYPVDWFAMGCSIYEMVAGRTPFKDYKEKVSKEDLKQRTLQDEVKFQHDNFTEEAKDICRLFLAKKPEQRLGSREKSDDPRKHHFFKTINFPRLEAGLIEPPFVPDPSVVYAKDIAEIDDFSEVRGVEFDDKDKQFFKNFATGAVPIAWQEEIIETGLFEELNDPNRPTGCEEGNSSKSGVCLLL
Chain of Serine/threonine-protein kinase MRCK beta (Homo sapiens) (Q9Y5S2 whole entry, canonical isoform): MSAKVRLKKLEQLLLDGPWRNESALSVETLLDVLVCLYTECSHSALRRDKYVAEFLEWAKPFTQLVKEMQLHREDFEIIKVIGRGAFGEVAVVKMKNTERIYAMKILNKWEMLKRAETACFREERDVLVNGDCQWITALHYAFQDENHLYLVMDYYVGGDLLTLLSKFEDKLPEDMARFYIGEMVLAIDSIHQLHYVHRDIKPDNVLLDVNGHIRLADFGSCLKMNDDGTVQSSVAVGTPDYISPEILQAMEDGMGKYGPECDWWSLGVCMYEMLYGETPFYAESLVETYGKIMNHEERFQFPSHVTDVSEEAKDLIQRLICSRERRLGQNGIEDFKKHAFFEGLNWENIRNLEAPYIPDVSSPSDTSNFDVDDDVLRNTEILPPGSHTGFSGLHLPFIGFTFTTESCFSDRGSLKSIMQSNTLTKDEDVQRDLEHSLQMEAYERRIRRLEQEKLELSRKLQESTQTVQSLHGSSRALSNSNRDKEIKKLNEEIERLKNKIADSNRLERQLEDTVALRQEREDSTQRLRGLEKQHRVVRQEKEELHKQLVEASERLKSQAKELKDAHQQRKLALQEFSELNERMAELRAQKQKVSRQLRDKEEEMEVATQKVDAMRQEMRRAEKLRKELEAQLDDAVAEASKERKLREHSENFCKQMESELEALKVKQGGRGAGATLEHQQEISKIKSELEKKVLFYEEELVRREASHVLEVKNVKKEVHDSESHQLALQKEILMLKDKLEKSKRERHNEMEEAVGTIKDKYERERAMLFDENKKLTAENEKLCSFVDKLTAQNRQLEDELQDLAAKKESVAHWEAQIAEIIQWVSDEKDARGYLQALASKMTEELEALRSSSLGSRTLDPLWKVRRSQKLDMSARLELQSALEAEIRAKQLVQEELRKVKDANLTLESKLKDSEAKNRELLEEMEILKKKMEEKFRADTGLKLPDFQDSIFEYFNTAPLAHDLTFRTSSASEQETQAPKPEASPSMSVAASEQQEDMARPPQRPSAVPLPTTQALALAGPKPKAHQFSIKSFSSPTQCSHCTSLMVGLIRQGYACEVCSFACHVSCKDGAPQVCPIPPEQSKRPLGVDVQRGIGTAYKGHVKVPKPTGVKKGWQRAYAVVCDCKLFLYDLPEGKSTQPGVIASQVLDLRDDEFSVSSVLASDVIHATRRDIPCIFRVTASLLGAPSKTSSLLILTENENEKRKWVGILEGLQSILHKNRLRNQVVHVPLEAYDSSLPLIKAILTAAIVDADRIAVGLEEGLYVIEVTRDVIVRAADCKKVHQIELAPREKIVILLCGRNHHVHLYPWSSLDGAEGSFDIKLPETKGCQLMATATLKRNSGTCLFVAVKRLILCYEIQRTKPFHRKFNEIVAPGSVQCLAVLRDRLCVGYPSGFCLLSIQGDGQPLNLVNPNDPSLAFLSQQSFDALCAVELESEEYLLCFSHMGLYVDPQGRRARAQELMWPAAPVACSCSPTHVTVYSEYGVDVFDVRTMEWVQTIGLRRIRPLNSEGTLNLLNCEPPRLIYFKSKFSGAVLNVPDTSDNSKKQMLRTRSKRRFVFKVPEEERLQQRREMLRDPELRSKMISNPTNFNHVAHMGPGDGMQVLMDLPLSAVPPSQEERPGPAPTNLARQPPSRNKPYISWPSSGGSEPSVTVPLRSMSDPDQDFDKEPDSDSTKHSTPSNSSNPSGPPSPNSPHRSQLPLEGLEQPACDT
Chain of Serine/threonine-protein kinase NIM1 (Homo sapiens) (Q8IY84 whole entry): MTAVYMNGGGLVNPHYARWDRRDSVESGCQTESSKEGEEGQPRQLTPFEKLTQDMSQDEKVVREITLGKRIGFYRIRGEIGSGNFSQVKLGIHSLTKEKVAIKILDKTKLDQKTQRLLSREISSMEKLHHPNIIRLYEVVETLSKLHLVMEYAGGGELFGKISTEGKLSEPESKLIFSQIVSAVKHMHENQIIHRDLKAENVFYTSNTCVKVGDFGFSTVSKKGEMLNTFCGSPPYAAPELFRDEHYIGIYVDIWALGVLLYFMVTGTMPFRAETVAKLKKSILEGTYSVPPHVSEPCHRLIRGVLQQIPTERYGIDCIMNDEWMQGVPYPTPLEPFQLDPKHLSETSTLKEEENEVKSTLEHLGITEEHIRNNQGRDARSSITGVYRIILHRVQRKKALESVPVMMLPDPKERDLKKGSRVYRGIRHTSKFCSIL
Chain of Dual specificity tyrosine-phosphorylation-regulated kinase 1B (Homo sapiens) (Q9Y463 whole entry, looked up): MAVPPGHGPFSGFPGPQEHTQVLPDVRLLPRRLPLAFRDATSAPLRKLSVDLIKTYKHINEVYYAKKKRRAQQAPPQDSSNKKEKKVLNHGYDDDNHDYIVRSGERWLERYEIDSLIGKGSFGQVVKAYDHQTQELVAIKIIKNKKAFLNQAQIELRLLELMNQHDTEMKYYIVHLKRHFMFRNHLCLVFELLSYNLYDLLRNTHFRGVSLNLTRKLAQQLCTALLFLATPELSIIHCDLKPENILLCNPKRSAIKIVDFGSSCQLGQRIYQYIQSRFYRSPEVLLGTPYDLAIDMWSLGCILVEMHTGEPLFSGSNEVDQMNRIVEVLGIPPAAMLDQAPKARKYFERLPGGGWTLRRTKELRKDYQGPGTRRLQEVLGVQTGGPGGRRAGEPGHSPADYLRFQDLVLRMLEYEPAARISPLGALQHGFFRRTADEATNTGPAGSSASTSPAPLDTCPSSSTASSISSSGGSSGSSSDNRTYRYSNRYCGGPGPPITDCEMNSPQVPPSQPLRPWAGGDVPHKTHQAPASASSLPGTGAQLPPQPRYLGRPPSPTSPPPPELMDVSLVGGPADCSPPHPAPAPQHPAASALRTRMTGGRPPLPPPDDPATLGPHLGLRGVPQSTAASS
Chain of Ephrin type-B receptor 3 (Homo sapiens) (P54753 whole entry): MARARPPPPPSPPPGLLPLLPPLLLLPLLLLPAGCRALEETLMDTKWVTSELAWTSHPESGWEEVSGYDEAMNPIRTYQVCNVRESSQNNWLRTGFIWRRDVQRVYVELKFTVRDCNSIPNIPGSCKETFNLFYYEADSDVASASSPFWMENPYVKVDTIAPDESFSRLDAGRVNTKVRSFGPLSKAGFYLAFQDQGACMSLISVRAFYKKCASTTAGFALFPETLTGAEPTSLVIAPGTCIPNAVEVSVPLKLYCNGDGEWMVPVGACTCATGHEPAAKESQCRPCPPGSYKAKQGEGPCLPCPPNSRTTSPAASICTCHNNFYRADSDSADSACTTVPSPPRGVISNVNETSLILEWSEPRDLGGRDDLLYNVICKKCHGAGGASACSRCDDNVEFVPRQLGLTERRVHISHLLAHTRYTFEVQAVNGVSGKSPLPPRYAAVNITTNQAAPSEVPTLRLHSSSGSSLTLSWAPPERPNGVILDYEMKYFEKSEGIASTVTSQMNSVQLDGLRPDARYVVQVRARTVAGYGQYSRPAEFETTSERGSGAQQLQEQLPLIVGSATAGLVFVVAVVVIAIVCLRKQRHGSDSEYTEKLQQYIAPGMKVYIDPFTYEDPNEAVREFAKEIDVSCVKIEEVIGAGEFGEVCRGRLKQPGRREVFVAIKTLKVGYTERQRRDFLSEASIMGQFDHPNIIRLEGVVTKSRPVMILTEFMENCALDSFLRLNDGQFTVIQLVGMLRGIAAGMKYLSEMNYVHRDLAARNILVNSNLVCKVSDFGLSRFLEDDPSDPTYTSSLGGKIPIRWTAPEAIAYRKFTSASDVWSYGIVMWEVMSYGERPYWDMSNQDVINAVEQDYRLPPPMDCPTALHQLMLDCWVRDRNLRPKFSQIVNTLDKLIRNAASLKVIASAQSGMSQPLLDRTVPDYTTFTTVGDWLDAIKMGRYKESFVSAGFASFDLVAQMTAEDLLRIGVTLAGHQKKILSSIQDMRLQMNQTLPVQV
Chain of cAMP-dependent protein kinase catalytic subunit PRKX (Homo sapiens) (P51817 whole entry): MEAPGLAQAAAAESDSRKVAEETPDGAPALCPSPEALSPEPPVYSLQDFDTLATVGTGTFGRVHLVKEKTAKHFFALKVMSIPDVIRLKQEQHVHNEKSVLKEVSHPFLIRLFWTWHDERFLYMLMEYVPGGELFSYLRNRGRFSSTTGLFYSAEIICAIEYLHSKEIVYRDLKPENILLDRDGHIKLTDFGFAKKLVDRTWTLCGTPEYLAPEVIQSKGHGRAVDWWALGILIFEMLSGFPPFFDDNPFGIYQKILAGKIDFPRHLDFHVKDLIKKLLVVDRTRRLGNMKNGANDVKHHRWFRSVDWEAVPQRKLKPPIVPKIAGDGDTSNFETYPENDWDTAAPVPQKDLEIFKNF
Chain of Cyclin-dependent kinase 2 homolog (Plasmodium falciparum (isolate 3D7)) (P61075 whole entry): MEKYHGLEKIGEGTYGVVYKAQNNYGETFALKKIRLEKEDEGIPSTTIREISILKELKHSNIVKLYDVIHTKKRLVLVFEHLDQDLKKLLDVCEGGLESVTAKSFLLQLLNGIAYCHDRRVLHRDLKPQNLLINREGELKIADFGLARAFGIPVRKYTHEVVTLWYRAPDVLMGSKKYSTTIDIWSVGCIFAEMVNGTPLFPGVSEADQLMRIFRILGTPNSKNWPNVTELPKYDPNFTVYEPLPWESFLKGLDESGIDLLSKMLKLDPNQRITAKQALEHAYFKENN

CS(=O)(=O)N1CCCC(NC(=O)[C@H](CCC2CCCCC2)NC(=O)c2ccc(CNc3ncnc4c3nnn4-c3ccccc3)cc2)C1 (stereo not given in full) [SR-301]
residual activity [1]: 87% | residual activity [2]: 45% | residual activity [3]: 100% | residual activity [4]: 74% | residual activity [5]: 100% | residual activity [6]: 91% | residual activity [7]: 100% | residual activity [8]: 100% | residual activity [9]: 90% | residual activity [10]: 85% | residual activity [11]: 100% | residual activity [12]: 100% | residual activity [13]: 100% | residual activity [14]: 60% | residual activity [15]: 100% | residual activity [16]: 96% | residual activity [17]: 100% | residual activity [18]: 94% | residual activity [19]: 94% | residual activity [20]: 94% | residual activity [21]: 81% | residual activity [22]: 86% | residual activity [23]: 100% | residual activity [24]: 82% | residual activity [25]: 100% | residual activity [26]: 88% | residual activity [27]: 100% | residual activity [28]: 100% | residual activity [29]: 86% | residual activity [30]: 100% | residual activity [31]: 100% | residual activity [32]: 100% | residual activity [33]: 96% | residual activity [34]: 100% | residual activity [35]: 96% | residual activity [36]: 82% | residual activity [37]: 85% | residual activity [38]: 90% | residual activity [39]: 100% | residual activity [40]: 90% | residual activity [41]: 100% | residual activity [42]: 100% | residual activity [43]: 100% | residual activity [44]: 100% | residual activity [45]: 99%

CS(=O)(=O)N1CCCC(NC(=O)[C@H](CCC2CCCCC2)NC(=O)c2ccc(CNC(=O)c3cnc4ccccn34)cc2)C1 (stereo not given in full) [SR-302]
residual activity [1]: 97% | residual activity [2]: 100% | residual activity [3]: 83% | residual activity [4]: 95% | residual activity [5]: 79% | residual activity [6]: 87% | residual activity [7]: 88% | residual activity [8]: 91% | residual activity [9]: 100% | residual activity [10]: 96% | residual activity [11]: 83% | residual activity [12]: 65% | residual activity [13]: 100% | residual activity [14]: 64% | residual activity [15]: 100% | residual activity [16]: 100% | residual activity [17]: 91% | residual activity [18]: 100% | residual activity [19]: 88% | residual activity [20]: 100% | residual activity [21]: 69% | residual activity [22]: 100% | residual activity [23]: 90% | residual activity [24]: 89% | residual activity [25]: 88% | residual activity [26]: 84% | residual activity [27]: 88% | residual activity [28]: 86% | residual activity [29]: 100% | residual activity [30]: 94% | residual activity [31]: 98% | residual activity [32]: 100% | residual activity [33]: 100% | residual activity [34]: 100% | residual activity [35]: 100% | residual activity [36]: 100% | residual activity [37]: 85% | residual activity [38]: 65% | residual activity [39]: 100% | residual activity [40]: 83% | residual activity [41]: 92% | residual activity [42]: 92% | residual activity [43]: 100% | residual activity [44]: 95% | residual activity [45]: 100%
